Measured values published in patent US5324750A, “Compositions and methods for drug delivery and chromatography” (priority 1988, dated 1994).
Structures can show the parent of a compound that is named as a salt.

Legend:
[1] = Stability of cyclodextrin derivatives in solution / on storage (hydrolysis); assay type: physicochemical
[2] = Solubility of amino cyclodextrins compared with unsubstituted cyclodextrin; assay type: physicochemical; conditions: water or other aqueous-based media
Excerpt: Solubility--refers to solution in water or other aqueous-based media.

Compound	stability in solution [1]	solubility [2]	hydrolysis ([1]; general / in water / during purification)
[N-]=[N+]=NC[C@H]1O[C@@H]2O[C@H]3[C@H](O)[C@@H](O)[C@@H](O[C@H]4[C@H](O)[C@@H](O)[C@@H](O[C@H]5[C@H](O)[C@@H](O)[C@@H](O[C@H]6[C@H](O)[C@@H](O)[C@@H](O[C@H]7[C@H](O)[C@@H](O)[C@@H](O[C@H]1[C@H](O)[C@H]2O)O[C@@H]7CO)O[C@@H]6CO)O[C@@H]5CO)O[C@@H]4CO)O[C@@H]3CO [6-Axido-6-Deoxy-α-Cyclodextrin, 6^A -Azido-6^A -deoxy-α-cyclodextrin]	not very stable in solution		
NC[C@H]1O[C@@H]2O[C@H]3[C@H](O)[C@@H](O)[C@@H](O[C@H]4[C@H](O)[C@@H](O)[C@@H](O[C@H]5[C@H](O)[C@@H](O)[C@@H](O[C@H]6[C@H](O)[C@@H](O)[C@@H](O[C@H]7[C@H](O)[C@@H](O)[C@@H](O[C@H]8[C@H](O)[C@@H](O)[C@@H](O[C@H]1[C@H](O)[C@H]2O)O[C@@H]8CO)O[C@@H]7CO)O[C@@H]6CO)O[C@@H]5CO)O[C@@H]4CO)O[C@@H]3CO [6^A -amino-6^A -deoxy-β-cyclodextrin hydrochloride salt]		greater than 20 g/100 ml	
NC[C@H]1O[C@@H]2O[C@H]3[C@H](O)[C@@H](O)[C@@H](O[C@H]4[C@H](O)[C@@H](O)[C@@H](O[C@H]5[C@H](O)[C@@H](O)[C@@H](O[C@H]6[C@H](O)[C@@H](O)[C@@H](O[C@H]7[C@H](O)[C@@H](O)[C@@H](O[C@H]8[C@H](O)[C@@H](O)[C@@H](O[C@H]1[C@H](O)[C@H]2O)O[C@@H]8CO)O[C@@H]7CO)O[C@@H]6CO)O[C@@H]5CO)O[C@@H]4CO)O[C@@H]3CO [6^A -amino-6^A -deoxy-β-cyclodextrin, 6^A -Amino-6^A -deoxy-β-cyclodextrin]	not stable in solution	about 4.8 g/100 ml	
CC(=O)O[C@H]1[C@H]2O[C@H]3[C@H](O)[C@@H](O)[C@@H](O[C@H]4[C@H](O)[C@@H](O)[C@@H](O[C@H]5[C@H](O)[C@@H](O)[C@@H](O[C@H]6[C@H](O)[C@@H](O)[C@@H](O[C@H]7[C@H](O)[C@@H](O)[C@@H](O[C@@H]([C@@H]1O)[C@@H](CO)O2)O[C@@H]7CO)O[C@@H]6CO)O[C@@H]5CO)O[C@@H]4CO)O[C@@H]3CO [α-2CDOAc, 2^A -O-Acetyl-α-cyclodextrin]			total purification could not be achieved due to hydrolysis of the product
